Legend:
Format in all cases: in vivo
[1] = tested on: peach aphids (Myzus persicae); assay: Myzus test; conditions: concentration of active compound 0.1 %, infested cabbage leaves (Brassica oleracea) dipped
Experimental: Myzus Test [table] To produce a suitable preparation of active compound, 1 part by weight of active compound is mixed with the stated amounts of solvent and emulsifier, and the concentrate is diluted with water to the desired concentration. Cabbage leaves (Brassica oleracea) which are heavily infested by peach aphids (Myzus persicae) are treated by being dipped into the preparation of active compound of the desired concentration. After the desired period of time, the kill in % is determined. 100% means that all aphids have been killed; 0% means that none of the aphids have been killed.

[2] = tested on: larvae of the green rice leaf-hopper (Nephotettix cincticeps); assay: Nephotettix test; conditions: active compound 0.1 %, rice seedlings (Oryza sativa) dipped
Experimental: Nephotettix Test [table] To produce a suitable preparation of active compound, 1 part by weight of active compound is mixed with the stated amounts of solvent and emulsifier, and the concentrate is diluted with water to the desired concentration. Rice seedlings (Oryza sativa) are treated by being dipped into the preparation of active compound of the desired concentration and are populated with larvae of the green rice leaf-hopper (Nephotettix cincticeps) while the leaves are still moist. After the desired period of time, the kill in % is determined. 100% means that all leaf-hoppers have been killed; 0% means that none of the leaf-hoppers have been killed.

[3] = tested on: larvae of the mustard beetle (Phaedon cochleariae); assay: Phaedon larvae test; conditions: concentration of active compound 0.1 %, cabbage leaves (Brassica oleracea) dipped
Experimental: Phaedon larvae Test [table] To produce a suitable preparation of active compound, 1 part by weight of active compound is mixed with the stated amounts of solvent and emulsifier, and the concentrate is diluted with water to the desired concentration. Cabbage leaves (Brassica oleracea) are treated by being dipped into the preparation of active compound of the desired concentration and are populated with larvae of the mustard beetle (Phaedon cochleariae) while the leaves are still moist. After the desired period of time, the kill in % is determined. 100% means that all […] have been killed.

Compound | Kill in % after 6 days [2] | Kill in % after 7 days [3] | also measured
CCOC1CCC2(CC1)NC(=O)C(c1c(C)cc(-c3ccc(Cl)cc3)cc1C)=C2O (centres unmarked) [drawing 171] | – | – | Kill in % after 6 days [1]: 95%
COC1CCC2(CC1)NC(=O)C(c1c(C)cc(-c3ccc(Cl)cc3)cc1Cl)=C2O (centres unmarked) [drawing 172] | 100% | – | –
CCOC1CCC2(CC1)NC(=O)C(c1c(C)cc(-c3ccc(Cl)cc3)cc1C)=C2O (centres unmarked) [drawing 173] | 100% | – | –
COC1CCC2(CC1)NC(=O)C(c1c(C)cc(-c3ccc(Cl)cc3)cc1Cl)=C2O (centres unmarked) [drawing 174] | – | 100% | –
CCOC1CCC2(CC1)NC(=O)C(c1c(C)cc(-c3ccc(Cl)cc3)cc1C)=C2O (centres unmarked) [drawing 175] | – | 100% | –

From US7288676B2, “Arylphenyl-substituted cyclic ketoenols” (Bayer CropScience AG, priority 1998, dated 2007)
